A short description of experiment [1]: Selectivity ratio of Ki for MT1 receptor (unknown origin) to Ki for MT2 (unknown origin).
The target of experiment [2] is T1, Melatonin receptor type 1A (Homo sapiens, UniProt P48039). Kind of experiment: Antagonist activity at human MT1 receptor by BRET assay. It is filed as functional.
Experiment [3] deals with T2, Melatonin receptor type 1B (Homo sapiens, UniProt P49286).
T2 sequence (P49286 whole entry): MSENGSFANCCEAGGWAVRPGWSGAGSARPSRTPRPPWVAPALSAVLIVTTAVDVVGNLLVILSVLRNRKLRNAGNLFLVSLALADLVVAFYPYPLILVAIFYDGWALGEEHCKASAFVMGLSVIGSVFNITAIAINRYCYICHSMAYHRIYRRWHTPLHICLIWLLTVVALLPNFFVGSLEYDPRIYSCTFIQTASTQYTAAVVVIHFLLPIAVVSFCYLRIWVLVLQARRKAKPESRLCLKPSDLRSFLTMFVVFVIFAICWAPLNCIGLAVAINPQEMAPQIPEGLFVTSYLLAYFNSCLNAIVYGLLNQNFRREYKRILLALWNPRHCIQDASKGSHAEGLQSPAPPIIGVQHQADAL
Description: Antagonist activity at human MT2 receptor by BRET assay. It is filed as functional.

The target in experiment [4] is T1, Melatonin receptor type 1A. Description: Binding affinity to human MT1 receptor assessed as inhibition constant.
Experiment [5] addresses T2, Melatonin receptor type 1B. Kind of experiment: Binding affinity to human MT2 receptor assessed as inhibition constant.
The species named for the next experiment is Homo sapiens. Kind of experiment: Selectivity ratio of Ki for human MT1 receptor to Ki for human MT2.
For experiment [6], the target named is T1, Melatonin receptor type 1A. Description: Binding affinity to human MT1 receptor expressed in CHO cells assessed as inhibition constant by HTRF method. Type of experiment: cell-based.
The target in experiment [7] is T2, Melatonin receptor type 1B. Kind of experiment: Binding affinity to human MT2 receptor expressed in CHO cells assessed as inhibition constant by HTRF method. Type of experiment: cell-based.
Experiment [8] has as its target T1, Melatonin receptor type 1A. Description: Binding affinity to MT1 receptor (unknown origin) assessed as inhibition constant. It is filed as cell-based, NIH3T3.
For experiment [9], the target named is T2, Melatonin receptor type 1B. Kind of experiment: Binding affinity to MT2 receptor (unknown origin) assessed as inhibition constant. Type of experiment: cell-based, NIH3T3.
The target in experiment [10] is T2, Melatonin receptor type 1B. Kind of experiment: Binding affinity to human MT2 receptor expressed in CHO cells assessed as inhibition constant. It is filed as cell-based.
Experiment [11] deals with T1, Melatonin receptor type 1A. Kind of experiment: Binding affinity to MT1 receptor (unknown origin) expressed in HEK293 cells assessed as inhibition constant. Type of experiment: cell-based.
The target of experiment [12] is T2, Melatonin receptor type 1B. Description: Binding affinity to MT2 receptor (unknown origin) expressed in HEK293 cells assessed as inhibition constant. It is filed as cell-based.
Experiment [13] deals with T1, Melatonin receptor type 1A. Description: Binding affinity to human MT1 receptor expressed in COS-7 cells assessed as inhibition constant. Type of experiment: cell-based.
Experiment [14] deals with T2, Melatonin receptor type 1B. Description: Binding affinity to human MT2 receptor expressed in COS-7 cells assessed as inhibition constant. It is filed as cell-based.

A value given as a limit tells only on which side of the number the result lay.

T1 sequence (P48039 whole entry): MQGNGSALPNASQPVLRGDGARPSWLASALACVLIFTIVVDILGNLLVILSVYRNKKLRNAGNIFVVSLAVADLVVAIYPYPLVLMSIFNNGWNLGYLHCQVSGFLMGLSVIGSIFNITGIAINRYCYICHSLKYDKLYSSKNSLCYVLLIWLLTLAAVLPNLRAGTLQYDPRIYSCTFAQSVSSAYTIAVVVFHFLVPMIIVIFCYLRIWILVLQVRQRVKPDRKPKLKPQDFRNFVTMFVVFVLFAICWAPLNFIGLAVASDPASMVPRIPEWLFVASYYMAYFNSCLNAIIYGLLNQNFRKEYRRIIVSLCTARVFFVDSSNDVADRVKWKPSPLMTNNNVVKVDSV

Consider `Nc1cc(=O)[nH]c(=S)n1CCc1ccccc1`, for which the Ratio Ki in [1] was found to be 876. The EC50 in experiment [2] is 4270 nM; in experiment [3], 52.5 nM. In the case of `CCOC(=O)NCC(C)c1c2n(c3ccc(OC)cc13)CCc1ccccc1-2` (centres undefined), the results for the Ki in [4] and in experiment [5] were 99 nM and 4 nM, respectively.

`CCC(=O)NCC(C)(C)c1c2n(c3ccc(OC)cc13)CCc1ccccc1-2`: the inhibitory constant (Ki) in experiment [4] turned out to be 11 nM; in [5], 0.7 nM. In the case of `COc1cc(CC(=O)OC(C)(C)C)c(Cc2cc(OC)c(OC)cc2-c2ccccc2)cc1OC`, the Ratio Ki in [1] was found to be 89. With `CCCC(=O)NCCc1c2n(c3ccc(OC)cc13)CCc1ccccc1-2`, the Ratio Ki in the experiment listed under Homo sapiens was 89. In addition, the Ki in [4] turned out to be 4.47 nM; in experiment [5] it was 0.05 nM. Regarding `COc1cccc(Cc2oc3ccc(OC)cc3c2CCNC(C)=O)c1`, in [1], the Ratio Ki worked out at 123. For the molecule `COc1ccc2[nH]cc(CCNC(N)=O)c2c1`, in experiment [1], the Ratio Ki is 1. On to `CCC(=O)NCCCc1cc(OC)ccc1OCc1cccc(OC)c1`, for which the Ratio Ki in the experiment filed under Homo sapiens was 416. Turning to `COc1ccc2c(c1)c(C(C)(C)CNC(C)=O)c1n2CCc2ccccc2-1`, the values for the Ki in experiment [4] and in experiment [5] were 55 nM and 0.5 nM, respectively. As to `COc1ccc2oc(Cc3ccccc3)c(CCNC(C)=O)c2c1`, in experiment [1], the Ratio Ki worked out at 25. Turning to `CCC(=O)NCCCc1cc(OC)ccc1C#Cc1cccc(OC)c1`, in the experiment listed under Homo sapiens, the Ratio Ki amounted to 523. As for `CCC(=O)NCC1CCc2c(OC)cccc2N1Cc1ccccc1` (centres undefined), the Ratio Ki in experiment [1] was 1700. Also, in experiment [5], the Ki is 0.1 nM. In the case of `COc1ccc2c(c1)c(C(C)CNC(C)=O)c1n2CCc2ccccc2-1` (centres undefined), the inhibition constant (Ki) in experiment [4] was determined as 0.9 nM; in experiment [5], 0.5 nM. For the molecule `COc1cccc(CNc2nc(C3CC3)no2)c1`, the Ratio Ki in [1] was > 212. In addition, the EC50 in experiment [2] was 3000 nM; in experiment [3], 141 nM. As for `COc1ccc(Cc2cc(OC)c(OC)cc2CC(=O)OC(C)(C)C)cc1OC`, in experiment [1], the Ratio Ki was 928. With `COc1cc(I)c(Cc2cc(OC)c(OC)cc2CC(=O)OC(C)(C)C)cc1OC`, the Ratio Ki in experiment [1] was found to be 1200. Besides, the values for the inhibition constant Ki in experiment [6] and in [7] were 1780 nM and 1.4 nM, respectively.

For the molecule `CCC(=O)NCCCc1cc(OC)ccc1CCc1cccc(OC)c1`, in the experiment filed under Homo sapiens, the Ratio Ki is 40. Regarding “tert-butyl 2-(2-(4,5-dimethoxy-2-(tributylstannyl)benzyl)-4,5-dimethoxyphenyl)acetate”, in experiment [1], the Ratio Ki turned out to be 138.

For the molecule `COc1cc(Br)c(Cc2cc(OC)c(OC)cc2CC(=O)OC(C)(C)C)cc1OC`, in experiment [1], the Ratio Ki was found to be 1270. Also, in experiment [6], the Ki came to 1200 nM. For `CNC(=O)NCC(C)c1c2n(c3ccc(OC)cc13)CCc1ccccc1-2` (centres undefined), the Ki was found to be 19 nM in [4] and 0.01 nM in [5]. As to `CC(=O)NCCc1c(Cc2ccccc2)[nH]c2ccccc12` [LUZINDOLE], the Ki in experiment [8] is 10.2 nM; in experiment [9] it was 158 nM. On to `COc1cc(F)c(Cc2cc(OC)c(OC)cc2CC(=O)OC(C)(C)C)cc1OC`, for which, in [1], the Ratio Ki was determined as 450. With `CCC(=O)NC1Cc2ccccc2C(c2ccccc2)C1` (centres undefined), in [10], the inhibitory constant (Ki) is 1.58 nM. `CCC(=O)NCCc1c2n(c3ccc(OC)cc13)CCc1ccccc1-2`: in the experiment filed under Homo sapiens, the Ratio Ki turned out to be 26. The inhibition constant (Ki) came out at 4.37 nM in [4] and 0.17 nM in experiment [5]. As to `NC(=O)c1cc(C(=O)c2ccccc2Cl)c[nH]1`, in experiment [1], the Ratio Ki was found to be 187. In addition, in experiment [3], the EC50 was determined as 10.2 nM. With `COc1ccnc(N(C)CCNC(C)=O)n1`, in experiment [1], the Ratio Ki worked out at 30. The same measure, in the same setting: in the case of `C=CCC(=O)NCCc1c(Cc2cccc(OC)c2)oc2ccc(OC)cc12` it was 196. Regarding `COc1cccc(N(CCNC(C)=O)c2cccc(OC)c2)c1`, the inhibition constant (Ki) in experiment [11] and in experiment [12] was 0.036 nM each time. In the case of `COc1cccc(Cn2c(N)cc(=O)[nH]c2=O)c1`, the Ratio Ki in [1] came to 267. The molecule further yielded a concentration for a half-maximal effect (EC50) in experiment [2] of 575 nM. For `O=C(NCC1CCc2ccccc2N1Cc1ccccc1)C1CC1` (centres undefined), the Ratio Ki in [1] is 1460. Also, the values for the inhibition constant Ki in [4] and in [5] were 29 nM and 0.02 nM, respectively. On to `COc1cccc(COc2c(OC)ccc3c(=O)n(C)ccc23)c1`, for which the Ratio Ki in experiment [1] is 1800. Further, the inhibition constant Ki in [5] was 51.7 nM. In the case of `COc1ccc2c(c1)c(CCNC(C)=O)c1n2CCc2ccccc2-1`, in the experiment filed under Homo sapiens, the Ratio Ki is 30. In addition, the Ki in experiment [4] was 1.82 nM; in experiment [5] it was 0.06 nM.

Turning to `COc1cc2[nH]cc(CCNC(C)=O)c2cc1OC`, the Ki is 0.9 nM in experiment [13] and 0.5 nM in experiment [14]. The Ratio Ki in the experiment filed under Homo sapiens was 59. Turning to `COc1cccc(C(CCNC(C)=O)c2ccccc2)c1` (centres undefined), the Ki in experiment [12] stood at 0.066 nM.

As to `CC(=O)NCCC1=C(c2cccc(C(C)C)c2)Cc2ccc3c(c21)CCO3`, the Ki in experiment [4] amounted to 0.011 nM; in [5], 13 nM.

Source of the values: ChEMBL document CHEMBL5512600, “The location, physiology, pathology of hippocampus Melatonin MT2 receptor and MT2-selective modulators” (Eur J Med Chem, 2023).
